Assay results as given in patent US12583861B2, “Derivatives of imidazo[4,5-d]pyridazine, their preparation and their therapeutic application” (SANOFI, priority 2021, dated 2026).

Experiments:
human TLR7 = target: T1, human TLR7 (Homo sapiens, UniProt Q9NYK1); experiment: HEK-Blue hTLR7 reporter cell assay (SEAP, NF-kB/AP-1) for stimulation of human TLR7; type: cell-based; conditions: HEK-Blue hTLR7 cells, 24 h incubation, SEAP readout; read-out: TLR7_EC50
T1 construct: host or cells: HEK293 (HEK-Blue hTLR7)
T1 sequence (Q9NYK1 27-1049): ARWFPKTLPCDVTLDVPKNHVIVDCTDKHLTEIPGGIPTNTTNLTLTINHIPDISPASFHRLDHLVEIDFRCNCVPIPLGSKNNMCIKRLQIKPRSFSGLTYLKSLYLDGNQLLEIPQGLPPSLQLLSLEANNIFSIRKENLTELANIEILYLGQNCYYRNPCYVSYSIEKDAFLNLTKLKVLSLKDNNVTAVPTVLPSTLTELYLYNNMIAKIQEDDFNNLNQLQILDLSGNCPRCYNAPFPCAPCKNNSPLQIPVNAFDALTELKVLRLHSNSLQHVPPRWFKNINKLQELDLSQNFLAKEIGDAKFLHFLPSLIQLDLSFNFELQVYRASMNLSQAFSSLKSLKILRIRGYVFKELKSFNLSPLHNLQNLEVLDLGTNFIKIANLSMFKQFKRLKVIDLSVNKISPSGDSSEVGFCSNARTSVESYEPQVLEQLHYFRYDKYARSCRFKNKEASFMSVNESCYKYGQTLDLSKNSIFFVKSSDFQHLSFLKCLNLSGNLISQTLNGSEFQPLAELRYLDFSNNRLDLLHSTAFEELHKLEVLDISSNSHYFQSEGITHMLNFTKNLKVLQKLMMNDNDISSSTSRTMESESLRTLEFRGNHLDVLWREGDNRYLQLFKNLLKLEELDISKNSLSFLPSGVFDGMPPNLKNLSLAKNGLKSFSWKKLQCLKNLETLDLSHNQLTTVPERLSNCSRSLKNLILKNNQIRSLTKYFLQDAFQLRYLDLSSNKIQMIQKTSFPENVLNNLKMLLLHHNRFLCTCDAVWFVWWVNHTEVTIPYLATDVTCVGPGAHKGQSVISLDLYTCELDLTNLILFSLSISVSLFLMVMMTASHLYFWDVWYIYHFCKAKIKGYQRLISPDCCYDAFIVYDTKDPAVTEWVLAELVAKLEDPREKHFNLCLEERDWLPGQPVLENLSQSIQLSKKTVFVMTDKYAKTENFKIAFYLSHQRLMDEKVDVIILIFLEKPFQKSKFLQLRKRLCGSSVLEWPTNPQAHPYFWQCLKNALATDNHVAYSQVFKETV
Method in brief: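 Activity expressed as EC50 for half-maximal SEAP induction. Compounds, serially diluted 3-fold from 20 to 0.01 μM, were incubated 24 h at 37 °C, 5% CO2 with HEK-Blue hTLR7 reporter cells (3.10E4/well, plated 18–24 h earlier); supernatant developed with QUANTI-Blue.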

human TLR8 = target: T2, human TLR8 (Homo sapiens, UniProt Q9NR97); experiment: HEK-Blue hTLR8 reporter cell assay (SEAP, NF-kB/AP-1) for stimulation of human TLR8; type: cell-based; conditions: HEK-Blue hTLR8 cells, 24 h incubation, SEAP readout; read-out: TLR8_EC50
T2 construct: host or cells: HEK293 (HEK-Blue hTLR8)
T2 sequence (Q9NR97 27-1041): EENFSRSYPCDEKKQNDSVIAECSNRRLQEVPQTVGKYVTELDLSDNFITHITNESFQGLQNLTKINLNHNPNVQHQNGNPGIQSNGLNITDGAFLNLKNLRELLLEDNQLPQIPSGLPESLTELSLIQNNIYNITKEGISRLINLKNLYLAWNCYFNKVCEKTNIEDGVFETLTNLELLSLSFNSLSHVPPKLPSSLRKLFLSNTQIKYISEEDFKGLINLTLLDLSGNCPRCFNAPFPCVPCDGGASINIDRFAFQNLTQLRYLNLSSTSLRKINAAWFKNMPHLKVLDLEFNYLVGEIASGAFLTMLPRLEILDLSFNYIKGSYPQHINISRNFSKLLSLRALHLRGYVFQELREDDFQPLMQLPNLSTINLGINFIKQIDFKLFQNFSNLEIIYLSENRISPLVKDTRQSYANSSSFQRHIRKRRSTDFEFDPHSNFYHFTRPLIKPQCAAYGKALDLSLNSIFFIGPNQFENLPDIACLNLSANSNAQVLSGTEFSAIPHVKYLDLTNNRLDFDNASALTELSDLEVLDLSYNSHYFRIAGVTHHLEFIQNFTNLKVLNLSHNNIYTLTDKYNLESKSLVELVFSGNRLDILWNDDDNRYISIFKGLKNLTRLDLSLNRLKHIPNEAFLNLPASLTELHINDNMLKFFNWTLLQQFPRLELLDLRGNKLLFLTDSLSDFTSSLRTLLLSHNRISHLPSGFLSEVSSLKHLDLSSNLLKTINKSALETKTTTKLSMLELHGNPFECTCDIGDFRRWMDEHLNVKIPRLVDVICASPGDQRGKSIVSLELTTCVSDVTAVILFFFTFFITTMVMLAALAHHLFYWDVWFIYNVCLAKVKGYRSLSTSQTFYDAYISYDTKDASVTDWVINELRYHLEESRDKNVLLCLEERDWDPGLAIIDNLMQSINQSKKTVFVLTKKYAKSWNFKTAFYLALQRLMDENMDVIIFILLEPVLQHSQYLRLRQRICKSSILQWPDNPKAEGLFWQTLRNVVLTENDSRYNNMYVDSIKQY
Method in brief: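 Stimulation is quantified as secreted alkaline phosphatase in supernatant using QUANTI-Blue™ substrate. Reporter HEK293 line co-transfected with hTLR8 and SEAP under an IFN-β minimal promoter with five NF-κB/AP-1 sites; 3.10E4 cells/well, 18 to 24 h pre-culture at 37° C. before compounds.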

EC50 (human TLR7) [nM]	EC50 (human TLR8) [nM]	SMILES
55	15500	CCCCc1nc2c(N)nnc(OC(C)C)c2n1Cc1ccc(CNC(=O)CC)cc1 [Compound 103, N-(4-((4-amino-2-butyl-7-isopropoxy-1H-imidazo[4,5-d]pyridazin-1-yl)methyl)benzyl)propionamide]
22	546	CCCCc1nc2c(N)nnc(OC(C)C)c2n1Cc1ccc(CNCCOC)cc1 [Compound 104, 2-butyl-7-isopropoxy-1-(4-(((2-methoxyethyl)amino)methyl)benzyl)-1H-imidazo[4,5-d]pyridazin-4-amine]
114	> 20000	CCCCc1nc2c(N)nnc(OC(C)C)c2n1Cc1ccc(CNCCOCCOCCOCCOCCOCCOC)cc1 [Compound 105, 2-butyl-4-isopropoxy-3-[[4-[[2-[2-[2-[2-[2-(2-methoxyethoxy)ethoxy]ethoxy]ethoxy]ethoxy]ethylamino]methyl]phenyl]methyl]imidazo[4,5-d]pyridazin-7-amine]
205	> 20000	CCCCc1nc2c(N)nnc(OC(C)C)c2n1Cc1ccc(CNC(=O)CCOC)cc1 [Compound 107, N-(4-((4-amino-2-butyl-7-isopropoxy-1H-imidazo[4,5-d]pyridazin-1-yl)methyl)benzyl)-3-methoxypropanamide]
29	1400	CCCCc1nc2c(N)nnc(OC(C)C)c2n1Cc1ccc(CNCCOCCOC)cc1 [Compound 108, 2-butyl-7-isopropoxy-1-(4-(((2-(2-methoxyethoxy)ethyl)amino)methyl)benzyl)-1H-imidazo[4,5-d]pyridazin-4-amine]
50	243	CCCCCCNCc1ccc(Cn2c(CCCC)nc3c(N)nnc(OC(C)C)c32)cc1 [Compound 109, 2-butyl-1-(4-((hexylamino)methyl)benzyl)-7-isopropoxy-1H-imidazo[4,5-d]pyridazin-4-amine]
734	2850	CCCCCCCCCCNCc1ccc(Cn2c(CCCC)nc3c(N)nnc(OC(C)C)c32)cc1 [Compound 110, 2-butyl-1-(4-((decylamino)methyl)benzyl)-7-isopropoxy-1H-imidazo[4,5-d]pyridazin-4-amine]
99	> 20000	CCCCc1nc2c(N)nnc(OC(C)C)c2n1Cc1ccc(CNC(=O)OCC)cc1 [Compound 111, ethyl (4-((4-amino-2-butyl-7-isopropoxy-1H-imidazo[4,5-d]pyridazin-1-yl)methyl)benzyl)carbamate]
248	> 20000	CCCCc1nc2c(N)nnc(OC(C)C)c2n1Cc1ccc(CNC(=O)OCc2ccc(OC)cc2)cc1 [Compound 112, 4-methoxybenzyl (4-((4-amino-2-butyl-7-isopropoxy-1H-imidazo[4,5-d]pyridazin-1-yl)methyl)benzyl)carbamate]
120	> 20000	CCCCc1nc2c(N)nnc(OC(C)C)c2n1Cc1ccc(CNC(=O)NCC)cc1 [Compound 113, 1-(4-((4-amino-2-butyl-7-isopropoxy-1H-imidazo[4,5-d]pyridazin-1-yl)methyl)benzyl)-3-ethylurea]
163	> 6340	CCCCc1nc2c(N)nnc(OC(C)C)c2n1Cc1ccc(CNC(=O)OCc2ccc(NC(C)=O)cc2)cc1 [Compound 114, 4-acetamidobenzyl (4-((4-amino-2-butyl-7-isopropoxy-1H-imidazo[4,5-d]pyridazin-1-yl)methyl)benzyl)carbamate]
107	> 16500	CCCCc1nc2c(N)nnc(OC(C)C)c2n1Cc1ccc(CNS(C)(=O)=O)cc1 [Compound 115, N-(4-((4-amino-2-butyl-7-isopropoxy-1H-imidazo[4,5-d]pyridazin-1-yl)methyl)benzyl)methanesulfonamide]
34	1820	CCCCc1nc2c(N)nnc(OC(C)C)c2n1Cc1ccc(CN(C)C)cc1 [Compound 116, 2-butyl-1-(4-((dimethylamino)methyl)benzyl)-7-isopropoxy-1H-imidazo[4,5-d]pyridazin-4-amine]
190	8880	CCCCc1nc2c(N)nnc(OC(C)C)c2n1Cc1ccc(CNCC(=O)OC(C)(C)C)cc1 [Compound 117, tert-butyl (4-((4-amino-2-butyl-7-isopropoxy-1H-imidazo[4,5-d]pyridazin-1-yl)methyl)benzyl)glycinate]
11	1490	CCCCc1nc2c(N)nnc(OC(C)C)c2n1Cc1ccc(CNC)cc1 [Compound 118, 2-butyl-7-isopropoxy-1-(4-((methylamino)methyl)benzyl)-1H-imidazo[4,5-d]pyridazin-4-amine]
143	2130	CCCCc1nc2c(N)nnc(OC(C)C)c2n1Cc1ccc(CNCCC(=O)OC(C)(C)C)cc1 [Compound 119, tert-butyl 3-((4-((4-amino-2-butyl-7-isopropoxy-1H-imidazo[4,5-d]pyridazin-1-yl)methyl)benzyl)amino)propanoate]
133	14400	CCCCc1nc2c(N)nnc(OC(C)C)c2n1Cc1ccc(CNCCOCCOCCOC)cc1 [Compound 120, 1-(4-(5,8,11-trioxa-2-azadodecyl)benzyl)-2-butyl-7-isopropoxy-1H-imidazo[4,5-d]pyridazin-4-amine]
86	15900	CCCCc1nc2c(N)nnc(OC(C)C)c2n1Cc1ccc(CNCCOCCOCCOCCOC)cc1 [Compound 121, 2-butyl-4-isopropoxy-3-[[4-[[2-[2-[2-(2-methoxyethoxy)ethoxy]ethoxy]ethylamino]methyl]phenyl]methyl]imidazo[4,5-d]pyridazin-7-amine]
729	> 20000	CCCCc1nc2c(N)nnc(OC(C)C)c2n1Cc1ccc(CNCCOCCOCCOCCOCCOCCOCCOCCOC)cc1 [Compound 122, 2-butyl-4-isopropoxy-3-[[4-[[2-[2-[2-[2-[2-[2-[2-(2-methoxyethoxy)ethoxy]ethoxy]ethoxy]ethoxy]ethoxy]ethoxy]ethylamino]methyl]phenyl]methyl]imidazo[4,5-d]pyridazin-7-amine di2,2,2-trifluoroacetate]
